# Laboratory results from patent US20150140002A1, “USE OF A PCSK9 INHIBITOR TO TREAT […]” (Sanofi, priority 2013, published 2015).
# Several values for one entry are separate records, joined by “and”; a condition that tells them apart may be missing. Equal values may be shown once.
# Test system: patients with hypercholesterolemia at moderate cardiovascular (CV) risk
# Assay: Example 2: Phase 3 monotherapy trial mAb316P versus ezetimibe, lipid parameters
# Type: in vivo, human
# Settings: for Lp(a) adjusted mean (SE) % change from baseline to week 24 / TGs adjusted mean (SE) % change from baseline to week 24: combined estimate; for LS mean (SE) percent reductions in LDL-C from baseline to week 24 / LS mean (SE) LDL-C reductions from baseline to week 24: given as reduction; for LDL-C LS mean (SE) change from baseline (%): baseline to Week 24; for estimated proportions of patients with LDL-C reductions ≧50% at week 12 / proportions of patients with LDL-C reductions ≧50% at week 12: before up-titration; for reduction in Lp(a): current study, discussion; for reduction in LDL-C at 12 weeks: summary, mAb316P 75mg Q2W arm, monotherapy population; for time-course of LDL-C lowering: week 4 to week 24, on-treatment; for between-group LS mean (SE) difference in LDL-C: week 12
# Source text: Randomization was stratified according to DM status. […] Patients were followed for 8 weeks after the last visit of the Double Blind Treatment Period (DBTP).
# Double-blind treatment period (DBTP)—A randomized, double-blind double dummy study treatment period of 24 weeks. The first injection during the double-blind period was done at the site on the day of randomization (Week 0 [D1]-V3) and as soon as possible after the call to IVRS/IWRS for randomization into the study. The subsequent injections were done by the patient (self-injection) or another designated person (such as spouse, relative, etc.) at a patient-preferred location (home, etc.).
# The primary efficacy endpoint was the percent change in calculated LDL-C from baseline to week 24, which is defined as: 100×(calculated LDL-C value at Week 24−calculated LDL-C value at baseline)/calculated LDL-C value at baseline.
# Total-C, HDL-C, TG, Apo B, Apo A-1, and Lp (a) were directly measured. LDL-C was calculated using the Friedewald formula at all visits (except Week −1 and Follow Up visit). If TG values exceeded 400 mg/dL (4.52 mmol/L) then the central lab reflexively measured (via the beta quantification method) the LDL-C rather than calculating it. Non-HDL-C was calculated by subtracting HDL-C from the total-C. Ratio Apo B/Apo A-1 was calculated.
# The primary endpoint was assessed in the intent-to-treat (ITT) population, which included all randomized patients who had at least 1 calculated LDL-C value at baseline and at one of the planned time points from weeks 4 to 24.
# Missing data were accounted for by means of a mixed effect model with repeated measures (MMRM) approach (Siddiqui et al., MMRM vs. LOCF: a comprehensive comparison based on simulation study and 25 NDA datasets”, J Biopharm Stat, vol. 19, pp. 227-246 (2009); National Research Council, “The Prevention and Treatment of Missing Data in Clinical Trials” Panel on Handling Missing Data in Clinical Trials. Committee on National Statistics, Division of Behavioral and Social Sciences and Education. 2010. Washington, D.C.: The National Academies Press; Andersen et al., “On the practical application of mixed effects models for repeated measures to clinical trial data”, Pharm Stat., vol. 12, pp. 7-16 (2013)). For the ITT analysis, all available measurements at planned time points from weeks 4 to 24 (meaning week 4, 8, 12, 16, and 24), whatever their status on or off-treatment, were used in the MMRM. One MMRM model was used for LDL-C to provide least-squares means estimates and comparison between treatment arms at weeks 24 and 12. Further details on the model are given below. For the on-treatment analysis, all available on-treatment measurements (i.e. up to 21 days after last injection/3 days after last capsule, whichever comes first) at planned time points from weeks 4 to 24 were used in the MMRM model. In the same way as for the ITT analysis, one model was used to provide estimates and comparison at week 24 and week 12 for the on-treatment analysis. Continuous key secondary endpoints other than Lp(a) and triglycerides were analyzed in a similar fashion as the primary endpoint and description of the statistical methodology for secondary endpoints and subgroup analysis is provided below.
# Outputs from the model were the baseline-adjusted least-squares (LS) mean estimates at week 24 for both treatment groups with their corresponding standard error (SE). Appropriate contrast statement was used to test the difference between these estimates at the 2-sided 5% alpha level.
# To analyze the key secondary endpoints, a hierarchical procedure was used to control type I error and handle multiplicity. Secondary efficacy endpoints were tested sequentially using the order given above, in the intent-to-treat population.
# [1] = ITT, excluding post up-titration data from patients up-titrated having LDL-C <100 mg/dL
# [2] = ITT, mAb316P 75 mg Q2W before up-titration, ezetimibe 10 mg daily
# [3] = on-treatment analysis, mAb316P 75 mg Q2W
molecule,measurement,setting,value
"O=C1[C@H](CC[C@H](O)c2ccc(F)cc2)[C@@H](c2ccc(O)cc2)N1c1ccc(F)cc1 [ezetimibe, reference compound]",Apo A-1 LS mean (SE) % change from baseline to week 24,ITT,−0.6 (1.6) %
same,Apo B LS mean (SE) % change from baseline to week 24,ITT,−11.0 (2.4) %
same,HDL-C LS mean (SE) % change from baseline to week 24,ITT,1.6 (1.9) %
same,Non-HDL-C LS mean (SE) % change from baseline to week 24,ITT,−15.1 (2.9) %
same,Total cholesterol LS mean (SE) % change from baseline to week 24,ITT,−10.9 (2.2) %
same,Lp(a) adjusted mean (SE) % change from baseline to week 24,ITT,−12.3 (3.8) %
same,TGs adjusted mean (SE) % change from baseline to week 24,ITT,−10.8 (4.3) %
same,LDL-C LS mean (SE) Week 24 change from baseline (%),[1],−15.6%
same,LS mean (SE) percent reductions in LDL-C from baseline to week 24,ITT,16 (3) %
same,LDL-C reduction at week 12,[2],20 (3) % and 20%
same,Apo A-1 LS mean (SE) % change from baseline to week 24,On-treatment,−0.7 (1.6) %
same,Apo B LS mean (SE) % change from baseline to week 24,On-treatment,−11.5 (1.9) %
same,HDL-C LS mean (SE) % change from baseline to week 24,On-treatment,1.7 (1.9) %
same,Non-HDL-C LS mean (SE) % change from baseline to week 24,On-treatment,−16.6 (1.9) %
same,Total cholesterol LS mean (SE) % change from baseline to week 24,On-treatment,−12.0 (1.6) %
same,Lp(a) adjusted mean (SE) % change from baseline to week 24,On-treatment,−12.3 (4.0) %
same,TGs adjusted mean (SE) % change from baseline to week 24,On-treatment,−12.7 (4.2) %
same,"LDL-C (on treatment), mean (SD)","Week 4, ezetimibe arm (n = 51)",109.9 (22.4) mg/dL
same,"LDL-C (on treatment), mean (SD)","Week 12, ezetimibe arm (n = 51)",109.8 (25.2) mg/dL
same,"LDL-C (on treatment), mean (SD)","Week 24, ezetimibe arm (n = 51)",113.4 (25.0) mg/dL
same,LDL-C LS mean (SE) change from baseline (%),ITT,−15.6%
same,LDL-C LS mean (SE) change from baseline (%),On-treatment,−17.2%
same,estimated proportions of patients with LDL-C reductions ≧50% at week 12,ITT,3%
same,proportions of patients with LDL-C reductions ≧50% at week 12,on-treatment analysis,2%
same,reduction in Lp(a),,12%
same,LS mean (SE) LDL-C reductions from baseline to week 24,on-treatment analysis,17 (2) %
same,LDL-C reduction at week 12,[3],20 (2) % and 20%
same,reduction in LDL-C at 12 weeks,,20%
"mAb316P: human anti-PCSK9 antibody; heavy chain SEQ ID NO:5, light chain SEQ ID NO:9; HCVR SEQ ID NO:1, LCVR SEQ ID NO:6",Apo A-1 LS mean (SE) % change from baseline to week 24,ITT,4.7 (1.6) %
same,Apo B LS mean (SE) % change from baseline to week 24,ITT,−36.7 (2.3) %
same,HDL-C LS mean (SE) % change from baseline to week 24,ITT,6.0 (1.9) %
same,Non-HDL-C LS mean (SE) % change from baseline to week 24,ITT,−40.6 (2.8) %
same,Total cholesterol LS mean (SE) % change from baseline to week 24,ITT,−29.6 (2.1) %
same,Lp(a) adjusted mean (SE) % change from baseline to week 24,ITT,−16.7 (3.7) %
same,TGs adjusted mean (SE) % change from baseline to week 24,ITT,−11.9 (4.2) %
same,LDL-C LS mean (SE) Week 24 change from baseline (%),[1],−44.3%
same,LS mean (SE) percent reductions in LDL-C from baseline to week 24,ITT,47 (3) %
same,LDL-C reduction at week 12,[2],48 (3) % and 48%
same,Apo A-1 LS mean (SE) % change from baseline to week 24,On-treatment,5.3 (1.6) %
same,Apo B LS mean (SE) % change from baseline to week 24,On-treatment,−40.8 (1.9) %
same,HDL-C LS mean (SE) % change from baseline to week 24,On-treatment,8.0 (1.9) %
same,Non-HDL-C LS mean (SE) % change from baseline to week 24,On-treatment,−47.1 (1.9) %
same,Total cholesterol LS mean (SE) % change from baseline to week 24,On-treatment,−34.2 (1.6) %
same,Lp(a) adjusted mean (SE) % change from baseline to week 24,On-treatment,−17.7 (4.1) %
same,TGs adjusted mean (SE) % change from baseline to week 24,On-treatment,−14.7 (4.4) %
same,"LDL-C (on treatment), mean (SD)","Week 4, non-uptitrated at Week 12 (n = 32)",59.8 (13.6) mg/dL
same,"LDL-C (on treatment), mean (SD)","Week 4, uptitrated at Week 12 (n = 14)",83.5 (23.6) mg/dL
same,"LDL-C (on treatment), mean (SD)","Week 12, non-uptitrated at Week 12 (n = 32)",58.8 (16.8) mg/dL
same,"LDL-C (on treatment), mean (SD)","Week 12, uptitrated at Week 12 (n = 14)",78.3 (22.8) mg/dL
same,LDL-C LS mean difference (SE) % MAb316P versus ezetimibe,"Week 24, ITT, excluding post up-titration data from patients up-titrated having LDL-C <100 mg/dL",−28.7%
same,LDL-C LS mean difference (SE) % MAb316P versus ezetimibe,"Week 24, ITT, listed as MAb316P",−31.6%
same,"LDL-C (on treatment), mean (SD)","Week 24, non-uptitrated, 75 mg Q2W (n = 32)",57.8 (16.2) mg/dL
same,"LDL-C (on treatment), mean (SD)","Week 24, uptitrated to 150 mg Q2W at Week 12 (n = 14)",74.8 (19.5) mg/dL
same,LDL-C LS mean (SE) change from baseline (%),ITT,−47.2%
same,LDL-C LS mean (SE) change from baseline (%),On-treatment,−54.1%
same,estimated proportions of patients with LDL-C reductions ≧50% at week 12,ITT,58%
same,proportions of patients with LDL-C reductions ≧50% at week 12,on-treatment analysis,65%
same,reduction in Lp(a),,18%
same,patients who achieved LDL-C<70 mg/dL at Week 8,"of the 46 mAb316P-treated patients in PK analyses, 75 mg Q2W",32 patients
same,LS mean (SE) LDL-C reductions from baseline to week 24,on-treatment analysis,54 (2) %
same,LDL-C reduction at week 12,[3],53 (2) % and 53%
same,reduction in LDL-C at 12 weeks,,~50%
same,time-course of LDL-C lowering,,robust LDL-C reductions maintained from week 4 to end of the treatment period at week 24
same,time-course of LDL-C lowering,listed as MAb316P,sustained LDL-lowering effect from weeks 4 to 24
same,between-group LS mean (SE) difference in LDL-C,ITT,−28 (4) %
same,between-group LS mean (SE) difference in LDL-C,on-treatment analysis,−33 (3) %
same,Apo A-1 LS mean difference (SE) % MAb316P versus ezetimibe,"week 24, ITT",5.3 (2.2) %
same,Apo B LS mean difference (SE) % MAb316P versus ezetimibe,"week 24, ITT",−25.8 (3.3) %
same,HDL-C LS mean difference (SE) % MAb316P versus ezetimibe,"week 24, ITT",4.4 (2.7) %
same,LDL-C LS mean difference (SE) % MAb316P versus ezetimibe,"week 24, ITT",−32 (4) %
same,Lp(a) mean difference (SE) % MAb316P versus ezetimibe,"week 24, ITT",−4.4 (5.3) %
same,Non-HDL-C LS mean difference (SE) % MAb316P versus ezetimibe,"week 24, ITT",−25.5 (4.1) %
same,TGs mean difference (SE) % MAb316P versus ezetimibe,"week 24, ITT",−1.2 (5.9) %
same,Total cholesterol LS mean difference (SE) % MAb316P versus ezetimibe,"week 24, ITT",−18.7 (3.0) %
same,Apo A-1 LS mean difference (SE) % MAb316P versus ezetimibe,"week 24, On-treatment",6.1 (2.3) %
same,Apo B LS mean difference (SE) % MAb316P versus ezetimibe,"week 24, On-treatment",−29.2 (2.6) %
same,HDL-C LS mean difference (SE) % MAb316P versus ezetimibe,"week 24, On-treatment",6.2 (2.7) %
same,LDL-C LS mean difference (SE) % MAb316P versus ezetimibe,"week 24, On-treatment",−36.9%
same,Lp(a) mean difference (SE) % MAb316P versus ezetimibe,"week 24, On-treatment",−5.4 (5.7) %
same,Non-HDL-C LS mean difference (SE) % MAb316P versus ezetimibe,"week 24, On-treatment",−30.5 (2.7) %
same,TGs mean difference (SE) % MAb316P versus ezetimibe,"week 24, On-treatment",−1.9 (6.0) %
same,Total cholesterol LS mean difference (SE) % MAb316P versus ezetimibe,"week 24, On-treatment",−22.2 (2.3) %
